In patent US20070172957A1, “Methods of identifying anti-inflammatory macrolides” (TAISHO PHARMACEUTICAL CO., LTD., priority 2004, published 2007):

Tested on: A549 cells
Assay: A549 microarray comparing macrolides with arachidonic acid pathway inhibitors, with IL-1β stimulation (Appendix C, Tables 6-9), and correlation analysis
Format: cell-based
Description: One inhibitor, triacsin C, acts on AA biosynthesis by inhibiting arachidonyl CoA synthetases, blocking the incorporation of free AA into phospholipids. Triacsin C is reasonably specific for AA compared to other fatty acids. However, triacsin C structurally resembles AA so it also may interfere with other steps in the AA pathway. Indomethacin is an inhibitor of COX1 and COX2 enzyme activities and therefore specifically blocks metabolism of AA into prostaglandins. […] It inhibits transcription of PLA2, and transcriptionally and post-transcriptionally regulates COX1 and COX2 activities. Dexamethasone has additional effects unrelated to AA through binding with the glucocorticoid receptor to glucocortcoid response elements.
A549 cells were pre-incubated overnight (17 hours) with macrolides (10 μM FMA-9045, 50 μM clarithromycin, 50 μM roxithromycin, 50 μM josamycin) and 15 μM triacsin C, and pre-incubated 2 hours with 100 nM indomethacin and 100 nM dexamethasone. All cells then were stimulated for 4 hours with IL-1β, because the activation of PLA2 and downstream signaling events generally requires an inflammatory stimulus. The various treatment conditions are shown below in Table 4. Following macrolide and inhibitor pre-treatment and IL-1 stimulation, the cells were lysed, total RNA was collected, and the poly-A+ mRNA fraction was purified. The resulting microarray data (Appendix C) were analyzed using the methods described in the Examples above.
The tables in Appendix C represent the effects of the arachidonic acid pathway inhibitors (“AA pathway inhibitors”) and the effects of the macrolides (“IL1+macrolide effects”). […] In both tables in Appendix C, the genes that meet this criterion (≧1.3 min fold change) are indicated in bold.
Quantitative analysis was done to determine how well the responses to the different AA pathway inhibitors correlated. The correlation values were assigned a p-value to provide statistical confidence to the correlation value. Correlation between experiments, across all spots showing good detection, was assessed by cosine vector angle to generate the data shown in Tables 7-9. A correlation coefficient close to one indicates strong correlation, whereas a value near zero indicates no correlation. P-values for each correlation coefficient were estimated based on a Fisher permutation test. In this test, each spot's expression ratios were randomly re-ordered across experiments and the degree of correlation between experiments was then reassessed. This was done repeatedly.

[1] = A549 cells, +IL1b +/- inhibitor

## C[C@@H]1C[C@H]2[C@@H]3CCC4=CC(=O)C=C[C@]4(C)[C@@]3(F)[C@@H](O)C[C@]2(C)[C@@]1(O)C(=O)CO [Dexa]
[1]
  wtd means, SpotID 46796 STC1 (stanniocalcin 1): 1.41
  wtd means, SpotID 46950 SERPINA3 (serine (or cysteine) proteinase inhibitor, clade A, member 3): 1.39
  wtd means, SpotID 46985 RIPK2 (RIP2, RICK; receptor-interacting serine-threonine kinase 2): 1.83
  wtd means, SpotID 47155 TNFAIP6 (tumor necrosis factor, alpha-induced protein 6): 1.27
  wtd means, SpotID 47166 SERPINA6 (serine (or cysteine) proteinase inhibitor, clade A, member 6): 1.33
  wtd means, SpotID 47444 TKT (transketolase (Wernicke-Korsakoff syndrome)): 0.83
  wtd means, SpotID 47569 STAT3 (signal transducer and activator of transcription 3): 1.42
  wtd means, SpotID 47698 PTPRJ (protein tyrosine phosphatase, receptor type, J): 1.38
  wtd means, SpotID 47987 THBS1 (thrombospondin 1): 0.66
  wtd means, SpotID 48234 PTPRZ1 (PTP zeta; protein tyrosine phosphatase, receptor-type, Z polypeptide 1): 1.00
  wtd means, SpotID 48239 TLN1 (talin 1): 1.53
  wtd means, SpotID 48288 TRAF5 (TNF receptor-associated factor 5): 1.42
  wtd means, SpotID 48359 RIPK1 (receptor (TNFRSF)-interacting serine-threonine kinase 1): 1.61
  wtd means, SpotID 48392 RIPK1 (receptor (TNFRSF)-interacting serine-threonine kinase 1): 1.62
  wtd means, SpotID 48395 TNFRSF7 (CD27; tumor necrosis factor receptor superfamily, member 7): 1.53
  wtd means, SpotID 48485 UCP1 (uncoupling protein 1 (mitochondrial, proton carrier)): 1.00
  wtd means, SpotID 48500 RPL13A (ribosomal protein L13a): 1.65
  wtd means, SpotID 48603 TEAD4 (TEA domain family member 4): 1.67
  wtd means, SpotID 49330 TNFRSF7 (CD27; tumor necrosis factor receptor superfamily, member 7): 1.76
  wtd means, SpotID 49899 WWOX (WW domain containing oxidoreductase): 0.76
  wtd means, SpotID 49901 TROAP (trophinin associated protein (tastin)): 0.84
  wtd means, SpotID 50379 TNFRSF6 (FAS; tumor necrosis factor receptor superfamily, member 6): 1.40
  wtd means, SpotID 50428 RPLP0 (ribosomal protein, large, P0): 0.73
  wtd means, SpotID 50491 TNFRSF6B (DcR3; tumor necrosis factor receptor superfamily, member 6b, decoy): 1.36

## COc1ccc2c(c1)c(CC(=O)O)c(C)n2C(=O)c1ccc(Cl)cc1 [indomethacin]
A549 + IL-1β, of the genes regulated by the labelled drug
  Number of differentially expressed genes also differential in response to triacsin C: 36
A549, IL1 vs IL1 + drug, threshold 1.3, macrolides 50 μM (FMA 10 μM), triacsin C 15 μM, indomethacin and dexamethasone 100 nM
  Total # Differential Genes (95% confidence): 37
[1]
  min fold change, SpotID 46796 STC1 (stanniocalcin 1): 1.34
  min fold change, SpotID 46950 SERPINA3 (serine (or cysteine) proteinase inhibitor, clade A, member 3): 1.28
  min fold change, SpotID 46985 RIPK2 (RIP2, RICK; receptor-interacting serine-threonine kinase 2): 1.85
  min fold change, SpotID 47155 TNFAIP6 (tumor necrosis factor, alpha-induced protein 6): 1.17
  min fold change, SpotID 47166 SERPINA6 (serine (or cysteine) proteinase inhibitor, clade A, member 6): 1.05
  min fold change, SpotID 47193 STAT3 (signal transducer and activator of transcription 3): 1.25
  min fold change, SpotID 47332 SERPINB3 (serine (or cysteine) proteinase inhibitor, clade B (ovalbumin), member 3): 1.25
  min fold change, SpotID 47444 TKT (transketolase (Wernicke-Korsakoff syndrome)): 1.00
  min fold change, SpotID 47569 STAT3 (signal transducer and activator of transcription 3): 1.69
  min fold change, SpotID 47697 TNFRSF6B (DcR3; tumor necrosis factor receptor superfamily, member 6b, decoy): 1.52
  min fold change, SpotID 47698 PTPRJ (protein tyrosine phosphatase, receptor type, J): 1.31
  min fold change, SpotID 47987 THBS1 (thrombospondin 1): 1.32
  min fold change, SpotID 48050 RPS6KA2 (ribosomal protein S6 kinase, 90 kD, polypeptide 2): 1.00
  min fold change, SpotID 48234 PTPRZ1 (PTP zeta; protein tyrosine phosphatase, receptor-type, Z polypeptide 1): 1.48
  min fold change, SpotID 48239 TLN1 (talin 1): 1.51
  min fold change, SpotID 48288 TRAF5 (TNF receptor-associated factor 5): 1.40
  min fold change, SpotID 48359 RIPK1 (receptor (TNFRSF)-interacting serine-threonine kinase 1): 1.00
  min fold change, SpotID 48392 RIPK1 (receptor (TNFRSF)-interacting serine-threonine kinase 1): 1.00
  min fold change, SpotID 48395 TNFRSF7 (CD27; tumor necrosis factor receptor superfamily, member 7): 1.55
  min fold change, SpotID 48485 UCP1 (uncoupling protein 1 (mitochondrial, proton carrier)): 1.32
  min fold change, SpotID 48500 RPL13A (ribosomal protein L13a): 1.06
  min fold change, SpotID 48594 RPS6KA2 (ribosomal protein S6 kinase, 90 kD, polypeptide 2): 1.03
  min fold change, SpotID 48603 TEAD4 (TEA domain family member 4): 1.72
  min fold change, SpotID 49330 TNFRSF7 (CD27; tumor necrosis factor receptor superfamily, member 7): 1.44
  min fold change, SpotID 49899 WWOX (WW domain containing oxidoreductase): 1.00
  min fold change, SpotID 49901 TROAP (trophinin associated protein (tastin)): 1.01
  min fold change, SpotID 50379 TNFRSF6 (FAS; tumor necrosis factor receptor superfamily, member 6): 1.38
  min fold change, SpotID 50428 RPLP0 (ribosomal protein, large, P0): 1.00
  min fold change, SpotID 50491 TNFRSF6B (DcR3; tumor necrosis factor receptor superfamily, member 6b, decoy): 1.17
  wtd means, SpotID 46796 STC1 (stanniocalcin 1): 1.47
  wtd means, SpotID 46950 SERPINA3 (serine (or cysteine) proteinase inhibitor, clade A, member 3): 1.41
  wtd means, SpotID 46985 RIPK2 (RIP2, RICK; receptor-interacting serine-threonine kinase 2): 2.23
  wtd means, SpotID 47155 TNFAIP6 (tumor necrosis factor, alpha-induced protein 6): 1.23
  wtd means, SpotID 47166 SERPINA6 (serine (or cysteine) proteinase inhibitor, clade A, member 6): 1.66
  wtd means, SpotID 47193 STAT3 (signal transducer and activator of transcription 3): 1.64
  wtd means, SpotID 47332 SERPINB3 (serine (or cysteine) proteinase inhibitor, clade B (ovalbumin), member 3): 1.33
  wtd means, SpotID 47444 TKT (transketolase (Wernicke-Korsakoff syndrome)): 0.82
  wtd means, SpotID 47569 STAT3 (signal transducer and activator of transcription 3): 2.00
  wtd means, SpotID 47697 TNFRSF6B (DcR3; tumor necrosis factor receptor superfamily, member 6b, decoy): 1.84
  wtd means, SpotID 47698 PTPRJ (protein tyrosine phosphatase, receptor type, J): 1.38
  wtd means, SpotID 47987 THBS1 (thrombospondin 1): 0.68
  wtd means, SpotID 48234 PTPRZ1 (PTP zeta; protein tyrosine phosphatase, receptor-type, Z polypeptide 1): 1.77
  wtd means, SpotID 48239 TLN1 (talin 1): 1.57
  wtd means, SpotID 48288 TRAF5 (TNF receptor-associated factor 5): 1.96
  wtd means, SpotID 48359 RIPK1 (receptor (TNFRSF)-interacting serine-threonine kinase 1): 1.34
  wtd means, SpotID 48392 RIPK1 (receptor (TNFRSF)-interacting serine-threonine kinase 1): 1.35
  wtd means, SpotID 48395 TNFRSF7 (CD27; tumor necrosis factor receptor superfamily, member 7): 1.76
  wtd means, SpotID 48485 UCP1 (uncoupling protein 1 (mitochondrial, proton carrier)): 1.70
  wtd means, SpotID 48500 RPL13A (ribosomal protein L13a): 1.23
  wtd means, SpotID 48603 TEAD4 (TEA domain family member 4): 2.19
  wtd means, SpotID 49330 TNFRSF7 (CD27; tumor necrosis factor receptor superfamily, member 7): 1.90
  wtd means, SpotID 49899 WWOX (WW domain containing oxidoreductase): 1.07
  wtd means, SpotID 49901 TROAP (trophinin associated protein (tastin)): 0.93
  wtd means, SpotID 50379 TNFRSF6 (FAS; tumor necrosis factor receptor superfamily, member 6): 1.57
  wtd means, SpotID 50428 RPLP0 (ribosomal protein, large, P0): 0.77
  wtd means, SpotID 50491 TNFRSF6B (DcR3; tumor necrosis factor receptor superfamily, member 6b, decoy): 1.60
A549 cells, microarray
  FADS1 expression: not
